According to ChEMBL document CHEMBL3865791, “Discovery and development of natural product oridonin-inspired anticancer agents” (Eur J Med Chem, 2016):
Structures can show the parent of a compound that is named as a salt.

Tests used:
[1] = Antiproliferative activity against human K562 cells after 72 hrs by MTT assay; format: functional, cell-based; details: K562, 72 h
[2] = Antiproliferative activity against human […] cells after 72 hrs by MTT assay; format: functional, cell-based
[3] = Antiproliferative activity against human ER-positive MCF7 cells measured after 48 hrs by MTT assay; format: functional, cell-based; details: MCF7, 48 h
[4] = Antiproliferative activity against human MDA-MB-231 cells measured after 48 hrs by MTT assay; format: functional, cell-based; details: MDA-MB-231, 48 h
[5] = Antiproliferative activity against human ER-triple negative MDA-MB-468 cells measured after 48 hrs by MTT assay; format: functional, cell-based; details: MDA-MB-468, 48 h
[6] = Antiproliferative activity against human MCF7/ADR cells measured after 48 hrs by MTT assay; format: functional, cell-based; details: NCI/ADR-RES
[7] = Antiproliferative activity against human MGC803 cells after 72 hrs by MTT assay; format: functional, cell-based; details: MGC-803, 72 h
[8] = Antiproliferative activity against human CaEs17 cells after 72 hrs by MTT assay; format: functional, cell-based; details: CaEs17, 72 h
MDA-MB-231 = experiment: Potency index, ratio of Oridonin EC50 to compound EC50 for human MDA-MB-231; format: functional
[9] = Antiproliferative activity against human MCF7 cells; format: functional, cell-based
[10] = Antiproliferative activity against human MDA-MB-231 cells; format: functional, cell-based
[11] = Toxicity in iv dosed Sprague-Dawley rat administered qd for 28 days; format: organism-based; details: in vivo
[12] = Antitumor activity against human MGC803 cells xenografted in ICR mouse assessed as tumor growth inhibition at 40 mg/kg/day, ip for 25 consecutive days relative to control; format: functional; details: MGC-803, ip, read-out: TGI
[13] = Antiproliferative activity against human […] cells after 24 hrs by MTT assay; format: functional, cell-based
[14] = Antitumor activity against H22 cells xenografted in ICR mouse assessed as tumor growth inhibition at 20 mg/kg/day, ip administered for 4 consecutive days relative to control; format: functional; details: read-out: TGI
[15] = Cytotoxicity against human K562 cells by MTT assay; format: functional, cell-based

SMILES	EC50 [1] [nM]	EC50 [2] [nM]	EC50 [3] [nM]	EC50 [4] [nM]	EC50 [5] [nM]	EC50 [6] [nM]	also measured
C=C1C(=O)[C@]23[C@H](OC(=O)c4ccccc4C(=O)OCCCOc4no[n+]([O-])c4S(=O)(=O)c4ccccc4)[C@H]1CC[C@H]2[C@@]12CO[C@@]3(O)[C@@H](O)[C@@H]1C(C)(C)CC[C@@H]2O	1820	860	–	–	–	–	–
C=C1C(=O)[C@@]23[C@@H]4OC(C)(C)O[C@@]25OC[C@]2(C6=C(CC[C@@H](OCCCl)O6)CC(C)(C)[C@H]2[C@@H]5O)[C@@H]3CC[C@@H]14	–	–	6800	7200	7300	8700	–
C=C1C(=O)[C@@]23C(=O)O[C@H]4CCC(C)(C)[C@H]5C(=O)OC[C@@]45[C@@H]2CC[C@@H]1[C@H]3OC(=O)c1ccccc1Cl	260	720	–	–	–	–	EC50 [7]: 820 nM; EC50 [8]: 280 nM
C=C1C(=O)[C@@]23[C@@H]4OC(C)(C)O[C@@]25OC[C@]2(C6=C(CC[C@H](OCCCC)O6)CC(C)(C)[C@H]2[C@@H]5O)[C@@H]3CC[C@@H]14	–	–	2400	2200	3000	3800	–
C=C1C(=O)[C@@]23[C@@H]4OC(C)(C)O[C@@]25OC[C@]2([C@@H](n6cc(-c7ccccc7)nn6)C=CC(C)(C)[C@H]2[C@@H]5O)[C@@H]3CC[C@@H]14	–	–	–	480	–	–	Ratio EC50 (MDA-MB-231): 61
C=C1C(=O)[C@@]23C(=O)O[C@H]4CCC(C)(C)[C@H]5C(=O)OC[C@@]45[C@@H]2CC[C@@H]1[C@H]3OC(=O)c1ccccc1	330	790	–	–	–	–	EC50 [7]: 460 nM; EC50 [8]: 810 nM
C=C1C(=O)[C@]23[C@H](O)[C@H]1CC[C@H]2[C@@]12CO[C@@]3(O)[C@@H](O)[C@@H]1C(C)(C)Cc1sc(NC3CCCCC3)nc12	–	–	–	–	–	–	EC50 [9]: 900 nM; EC50 [10]: 800 nM
C=C1C(=O)[C@@]23C(=O)O[C@H]4CCC(C)(C)[C@H]5C(=O)OC[C@@]45[C@@H]2CC[C@@H]1[C@H]3OC(=O)c1ccc(Cl)cc1	140	890	–	–	–	–	EC50 [7]: 340 nM; EC50 [8]: 340 nM
C=C1C(=O)[C@]23[C@H](O)[C@H]1CC[C@H]2[C@@]12CO[C@@]3(O)[C@@H](O)[C@@H]1C(C)(C)Cc1sc(N3CCCCCC3)nc12	–	–	–	–	–	–	EC50 [9]: 1200 nM; EC50 [10]: 6800 nM
C=C1C(=O)[C@]23[C@H](O)[C@H]1CC[C@H]2[C@@]12CO[C@@]3(O)[C@@H](O)[C@@H]1C(C)(C)Cc1sc(N)nc12	–	–	–	–	–	–	EC50 [9]: 1000 nM; EC50 [10]: 3200 nM
C=C1C(=O)[C@]23[C@H](O)[C@H]1CC[C@H]2[C@@]12CO[C@@]3(O)[C@@H](O)[C@@H]1C(C)(C)Cc1sc(NC(=N)N)nc12	–	–	–	–	–	–	EC50 [9]: 3400 nM; EC50 [10]: > 10000 nM
C=C1C(=O)[C@@]23C(=O)O[C@H]4CCC(C)(C)[C@H]5[C@H](O)OC[C@@]45[C@@H]2CC[C@@H]1[C@H]3OC(C)=O	1110	1970	–	–	–	–	EC50 [7]: 1990 nM; EC50 [8]: 1590 nM
C=C1C(=O)[C@@]23C(=O)O[C@H]4CCC(C)(C)[C@H]5[C@H](O)OC[C@@]45[C@@H]2CC[C@@H]1[C@H]3OC(=O)c1ccc(C)cc1	140	1010	–	–	–	–	EC50 [7]: 610 nM; EC50 [8]: 450 nM
C=C1C(=O)[C@]23[C@H](OC(=O)[C@H](C)N)[C@H]1CC[C@H]2[C@@]12CO[C@@]3(O)[C@@H](O)[C@@H]1C(C)(C)CC[C@@H]2O.O=C(O)C(F)(F)F	–	–	–	–	–	–	NOAEL at 672 h [11]: 40 mg/kg
C=C1C(=O)[C@@]23C(=O)O[C@H]4CCC(C)(C)[C@H]5[C@H](O)OC[C@@]45[C@@H]2CC[C@@H]1[C@H]3OC(=O)c1ccccc1Cl	220	850	–	–	–	–	EC50 [7]: 800 nM; EC50 [8]: 600 nM
C=C1C(=O)[C@@]23C(=O)O[C@H]4CCC(C)(C)[C@H]5C(=O)OC[C@@]45[C@@H]2CC[C@@H]1[C@H]3OC(=O)c1cccnc1	1740	710	–	–	–	–	EC50 [7]: 1160 nM; EC50 [8]: 3540 nM; inhibition in vivo at 40 mg/kg/day [12]: 64.8%
C=CCNc1nc2c(s1)CC(C)(C)[C@H]1[C@H](O)[C@]3(O)OC[C@@]21[C@@H]1CC[C@H]2C(=C)C(=O)[C@]13[C@@H]2O	–	–	–	–	–	–	Ratio EC50 (MDA-MB-231): 147; EC50 [9]: 200 nM; EC50 [10]: 200 nM
C=C1C(=O)[C@]23[C@H](OC(=O)CC(CCCCCCCCCCCC)C(=O)O)[C@H]1CC[C@H]2[C@@]12CO[C@@]3(O)[C@@H](O)[C@@H]1C(C)(C)CC[C@@H]2O (some centres undefined)	–	–	–	–	–	–	EC50 [13]: 2060 nM; inhibition in vivo at 20 mg/kg/day [14]: 63.7%

SMILES	EC50 [1] [nM]	EC50 [2] [nM]	EC50 [3] [nM]	EC50 [4] [nM]	EC50 [5] [nM]	EC50 [6] [nM]	also measured
C=C1C(=O)[C@@]23[C@@H]4OC(C)(C)O[C@@]25OC[C@]2(C6=C(CC[C@H](OCCCl)O6)CC(C)(C)[C@H]2[C@@H]5O)[C@@H]3CC[C@@H]14	–	–	2300	3300	3000	3100	–
C=CCO[C@H]1CCC2=C(O1)[C@@]13CO[C@@]4(OC(C)(C)O[C@@H]5[C@H]6CC[C@@H]1[C@]54C(=O)C6=C)[C@@H](O)[C@@H]3C(C)(C)C2	–	–	4300	7100	4900	4300	–
C=C1C(=O)[C@]23[C@H](O)[C@H]1CC[C@H]2[C@@]12CO[C@@]3(O)[C@@H](O)[C@@H]1C(C)(C)Cc1sc(NC)nc12	–	–	–	–	–	–	EC50 [9]: 1300 nM; EC50 [10]: 2100 nM
C=C1C(=O)[C@]23[C@H](O)[C@H]1CC[C@H]2[C@@]12CO[C@@]3(O)[C@@H](O)[C@@H]1C(C)(C)Cc1sc(N(C)C)nc12	–	–	–	–	–	–	EC50 [9]: 800 nM; EC50 [10]: 300 nM
C=C1C(=O)[C@@]23[C@@H]4OC(C)(C)O[C@@]25OC[C@]2(C6=C(CC[C@@H](OCC)O6)CC(C)(C)[C@H]2[C@@H]5O)[C@@H]3CC[C@@H]14	–	–	440	540	520	1600	–
C=CCO[C@@H]1CCC2=C(O1)[C@@]13CO[C@@]4(OC(C)(C)O[C@@H]5[C@H]6CC[C@@H]1[C@]54C(=O)C6=C)[C@@H](O)[C@@H]3C(C)(C)C2	–	–	2100	3300	4400	3200	–
C=C1C(=O)[C@]23[C@H](O)[C@H]1CC[C@H]2[C@@]12CO[C@@]3(O)[C@@H](O)[C@@H]1C(C)(C)Cc1sc(NCCCC)nc12	–	–	–	–	–	–	EC50 [9]: 600 nM; EC50 [10]: 1100 nM
COc1cccc2c1C(=O)c1c(O)c3c(c(O)c1C2=O)C[C@@](O)(C(=O)CO)C[C@@H]3O[C@H]1C[C@H](N)[C@H](O)[C@H](C)O1 [DOXORUBICIN HYDROCHLORIDE]	–	–	700	2300	700	> 10000	–
C=C1C(=O)[C@@]23[C@@H]4OC(C)(C)O[C@@]25OC[C@]2(C6=C(CC[C@H](OCC(C)C)O6)CC(C)(C)[C@H]2[C@@H]5O)[C@@H]3CC[C@@H]14	–	–	2200	1800	2600	4400	–
C=C1C(=O)[C@@]23[C@@H]4OC(C)(C)O[C@@]25OC[C@]2(C6=C(CC[C@@H](OCC(C)C)O6)CC(C)(C)[C@H]2[C@@H]5O)[C@@H]3CC[C@@H]14	–	–	5800	8200	7000	10300	–
CC(=O)[C@@H]1CC[C@H]2[C@@]34CO[C@@]5(O)[C@@H](OC(=O)[C@]25[C@@H]1O)[C@@H]3C(C)(C)CC[C@@H]4O	–	–	–	–	–	–	EC50 [15]: 18500 nM
C=C1C(=O)[C@@]23C(=O)O[C@H]4CCC(C)(C)[C@H]5C(=O)OC[C@@]45[C@@H]2CC[C@@H]1[C@H]3OC(C)=O	350	1370	–	–	–	–	EC50 [7]: 1270 nM; EC50 [8]: 690 nM
C=C1C(=O)[C@]23[C@H](O)[C@H]1CC[C@H]2[C@@]12CO[C@@]3(O)[C@@H](O)[C@@H]1C(C)(C)Cc1sc(NCCN3CCCCC3)nc12	–	–	–	–	–	–	EC50 [9]: 1000 nM; EC50 [10]: 1800 nM
C=C1C(=O)[C@@]23C(=O)O[C@H]4CCC(C)(C)[C@H]5[C@H](O)OC[C@@]45[C@@H]2CC[C@@H]1[C@H]3OC(=O)c1ccccc1	210	1420	–	–	–	–	EC50 [7]: 930 nM; EC50 [8]: 540 nM
C=C1C(=O)[C@@]23[C@@H]4OC(C)(C)O[C@@]25OC[C@]2(C6=C(CC[C@@H](OCCCC)O6)CC(C)(C)[C@H]2[C@@H]5O)[C@@H]3CC[C@@H]14	–	–	2400	3700	5800	6800	–
C=C1C(=O)[C@@]23C(=O)O[C@H]4CCC(C)(C)[C@H]5C(=O)OC[C@@]45[C@@H]2CC[C@@H]1[C@H]3OC(=O)c1ccc(C)cc1	520	1580	–	–	–	–	EC50 [7]: 1540 nM; EC50 [8]: 1780 nM
C=C1C(=O)[C@]23[C@H](O)[C@H]1CC[C@H]2[C@@]12CO[C@@]3(O)[C@@H](O)[C@@H]1C(C)(C)Cc1sc(NC(C)=O)nc12	–	–	–	–	–	–	EC50 [9]: 2000 nM; EC50 [10]: 6800 nM
C=C1C(=O)[C@@]23[C@@H]4OC(C)(C)O[C@@]25OC[C@]2(C6=C(CC[C@H](OCC)O6)CC(C)(C)[C@H]2[C@@H]5O)[C@@H]3CC[C@@H]14	–	–	3500	6100	5400	4700	–
